Consider 17 compounds from PubChem BioAssay (NCI).

Common to all, as to test: NCI tumour cell line growth inhibition, 48 h
The subject of assay [1] is M14 melanoma.
Assay [2] deals with SF-295 CNS.
Assay [3] has as its system OVCAR-3 ovarian.
Assay [4] deals with NCI-H460 lung.
Assay [5] has as its system SF-268 CNS.
For assay [6], the system named is CAKI-1 renal.
The test system of assay [7] is OVCAR-8 ovarian.
Assay [8] relates to KM12 colon.
The subject of assay [9] is PC-3 prostate.

Structures are written as SMILES.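 Assay format: 96-well plates, 48-hour exposure. At the TGI there is no net growth.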

As for `O=C(CC1C(=O)Nc2ccccc2S1=O)Nc1cc(Cl)ccc1Cl` (stereo unspecified), the TGI in assay [1], in [2], in [3], in [4], in assay [5] and in [6] was over 100 µM throughout. This compound displayed a TGI in assay [7] of over 100 µM.
Turning to `COC(=O)C1CCCC2(C1)OCCO2` (stereo unspecified), the TGI in assay [1], in assay [2], in assay [3], in [4], in assay [5] and in assay [8] was over 100 µM in each case. For the same compound, the TGI in assay [6] and in [7] was over 100 µM throughout.
Turning to `CN1CCC(=O)/C(=C/c2ccccc2)C1`, the TGI in [1] stood at 26.7 µM; in assay [2], 29.3 µM; in [3], 26.2 µM; in assay [4], 41.8 µM; in assay [5], 43.2 µM; in assay [8], 5.28 µM. The TGI in assay [6] was 33.9 µM; in assay [7], 51.7 µM.
Take `O=[N+]([O-])c1ccc2occ3c2c1CCC3`: the TGI in assay [1], in assay [2], in assay [3], in assay [4], in [5] and in assay [8] was over 100 µM in each case. The compound also displayed a TGI in assay [7] of over 100 µM.
In the case of `C=CCCCCC1CCC2CCC(CCCCC=C)N12` (stereo unspecified), the TGI in assay [1] amounted to 31.3 µM; in assay [2], 26.4 µM; in assay [3] it was 30.2 µM; in [4] it was 26.2 µM; in [5], 29.8 µM; in [8] it was 29.6 µM. Besides, the results for the TGI in [6] and in assay [7] were 84.8 µM and 33.1 µM, respectively.
Consider `COc1ccc(CCN(C)C2CCC(C#N)(c3ccc(OC)c(OC)c3)CC2)cc1OC` (stereo unspecified), for which the TGI in [1], in assay [2], in [3], in assay [4], in assay [5] and in assay [8] was over 100 µM each time. The compound also gave a TGI in [7] of over 100 µM.
Consider `COc1ccc2c(c1OCC(=O)O)C(=O)C(CCC(=O)O)CC2` (stereo unspecified), for which the TGI in assay [1], in assay [2], in assay [3], in assay [4], in [6] and in [7] was over 100 µM throughout.
Take `CCOC(=O)c1nc2c(OC)nn(O)cc-2c1[N+](=O)[O-]`: the TGI in assay [1] was 36.4 µM; in assay [2], over 100 µM; in assay [3], 35.2 µM; in [4], 49.2 µM; in assay [5], 94.9 µM; in assay [8] it was 28.2 µM. This compound displayed a TGI in assay [7] of 36.4 µM.
For `Cc1ccccc1C(=O)c1cc(O)ccc1O`, the TGI in assay [1], in assay [2], in assay [3], in assay [4], in assay [5] and in [8] was over 100 µM each time. Also, the TGI in assay [6] and in assay [7] was over 100 µM throughout.
With `Cc1nc(N)sc1N=Nc1ccccc1Br`, the TGI in [1] is 67.6 µM; in [2] it was 97.7 µM; in [3] it was over 79.9 µM; in [4], over 67.4 µM; in assay [9], 63 µM; in assay [5], 40.4 µM. The TGI in assay [8] is 51.1 µM; in [6], 81.8 µM; in assay [7] it was over 84.8 µM.
For the compound `C#CC1/C(=C\C(=O)OC)CCCC1O` (stereo unspecified), the TGI in assay [1], in assay [2], in assay [3], in [4], in [5] and in assay [8] was over 100 µM each time. Further, the TGI in assay [6] and in [7] was over 100 µM in each case.
For the compound `O=C(Nc1cccc(Cl)c1)C(=O)C(C(=O)c1ccc2ccccc2c1)C1OC(=O)c2ccccc21` (stereo unspecified), the TGI in assay [1] worked out at 36.7 µM; in assay [3], 56.6 µM; in assay [4], 30.5 µM; in [5], 57.5 µM; in assay [8], 60.3 µM; in [6], 67.6 µM. In assay [7], this compound returned a TGI of 68.9 µM.
Regarding `Cc1ccc2nc(/C(=C/c3ccc(/C=C(\NC(=O)c4ccccc4)c4nc5ccc(C)cc5[nH]4)c(C)c3)NC(=O)c3ccccc3)[nH]c2c1`, the TGI in [1] was 52.7 µM; in assay [3], 22 µM; in assay [4], 35.8 µM; in [5] it was over 100 µM; in [8], 37.5 µM; in assay [6], 91.3 µM. Moreover, in assay [7], the TGI turned out to be 81.8 µM.
For `CN(C)C(=S)/N=c1\sn(C)/c(=N\C(=S)N(C)C)n1C`, the TGI in [1], in assay [2], in [3], in [4], in assay [5] and in assay [8] was over 100 µM throughout. Besides, the TGI in [6] and in assay [7] was over 100 µM in each case.
For the compound `COc1cc(OC)c2c(=O)cc(-c3ccc(OC)c(OC)c3OC)oc2c1`, the TGI in assay [1], in [2], in [3], in assay [5], in [8] and in assay [6] was over 100 µM throughout.
In the case of `C/C(CC(=O)Nc1ccc(C)c(C)c1)=N\N(c1ccccc1)c1ccccc1`, the TGI in assay [1], in assay [2], in assay [3], in assay [4], in [5] and in assay [8] was over 100 µM in each case. Further, the TGI in assay [6] and in assay [7] was over 100 µM each time.
Regarding `c1ccc2c(OCCSCCCCCCCCCCSCCOc3cccc4ccccc34)cccc2c1`, the TGI in [2], in assay [3], in [4], in assay [5], in assay [8] and in assay [6] was over 100 µM throughout. The TGI in [7] was over 100 µM.
